Measurements: US20240076347A1, “METHODS FOR PREVENTING FUNGAL INFECTIONS” (Cidara Therapeutics, Inc., priority 2016, published 2024)
Numbered stars: 1 amine (or outer) side, 2 acyl side, 3 side chain; on linkers, the order of the positions; unused ones are H or OH. Bridge positions count the residues as written; N and C are the ends. Square brackets hold non-standard residues; d marks the D form. Peptide text beside a SMILES is read from it. * marks the point of attachment. ξ: configuration not given here. Orn(4R-OH,5R-OCH2CH2NMe3+) = C[N+](C)(C)CCO[C@@H](N[*:3])[C@H](O)C[C@H](N[*:1])C(=O)[*:2]; pTerphenylCO(4''-OnC5H11) = CCCCCOc1ccc(-c2ccc(-c3ccc(C(=O)*)cc3)cc2)cc1; hTyr(3S-OH,4S-OH) = N[C@H](C(=O)O)[C@H](O)[C@@H](O)c1ccc(O)cc1; X1 = C[C@H]1CN([*:1])C(C(=O)[*:2])C1O; Hyp = O=C(O)[C@@H]1C[C@@H](O)CN1; ξT = CC(O)C(N)C(=O)O

Assays:
[1] = tested on: Candida albicans (ATCC SC5314); assay: Disseminated candidiasis in immunocompetent DBA/2 mice, prophylaxis, kidney fungal burden; type: in vivo
Protocol: Cultures of Candida albicans (ATCC SC5314) were grown overnight at 37° C. in an ambient atmosphere on Sabouraud agar. Cultures were removed from the incubator, aseptically transferred to tubes of phosphate buffered saline (PBS), and an optical density was determined at 600 nm. The cultures were diluted to provide a challenge inoculate of approximately 5.0 log10 CFU per mouse in a volume of 100 μL. Each animal was administered an intravenous (IV) challenge in a volume of 100 IL on Day 0. Instillation of the challenge constituted time 0 hour for the study.
Mice were treated with CD101 one time via subcutaneous (SC) injection prior to challenge on either Day −5, Day −3, Day −1 or Day 0 per Table 3. Micafungin and vehicle controls were administered on Day 0 as per Table 3. Day 0 treatment or control administration occurred immediately following the challenge. Test articles were administered in a volume of 0.5 mL.
The primary endpoint used to assess progress of the infection was mean CFU burden per gram of kidney tissue. At 24 hours post-challenge, mice were humanely euthanized via CO2 overexposure. Kidneys were aseptically removed, weighed, and transferred to sterile tubes containing 2 mL of PBS. Tissues were homogenized with a mini-bead beater. Serial dilutions of the tissue homogenates were plated on Sabouraud dextrose agar plates and incubated at 37° C. for 24-48 hours. CFU/g tissue was determined from colony counts.

[2] = tested on: C. albicans strain 529L; assay: Rat model of vulvovaginal candidiasis, vaginal lavage and tissue burden; type: in vivo, Candida albicans; conditions: for reduction in terminal vaginal tissue burden: not statistically lower than vehicle
Protocol: Animal Strain. Wistar rats were supplied by Harlan Laboratories UK and were specific pathogen free. Rats weighed […] at the time of surgery. Ovariectomies were performed. Rats were allowed 4-7 days recovery before transportation to the facility where the experiment was to be performed. Following arrival, rats were allowed at least 4 days acclimatization before start of the experiment. Rats weighed 100-120 g at the time of ovariectomy and were about 300 g at start of the experiment.
Pre-conditioning. Female Wistar rats underwent ovariectomy at least 10 days prior to the study commencing. They were further pre-conditioned by treatment with 5 mg/kg 17-β-estradiol administered subcutaneously (SC) every other day on Days −7, −5, −3 and −1 prior to infection with C. albicans strain 529. Estradiol treatment continued every other day throughout the study to 7 days post-infection.
Yeast Isolate. Candida albicans strain 529L was used in this chronic rat vaginal infection model.
Infection. Yeast strains were inoculated aerobically onto Sabouraud dextrose agar media (SAB) containing 0.05 mg/mL chloramphenicol and incubated at 30° C. for 48-72 h. 18-24 h prior to infection, Yeast Peptone Dextrose (YPD) broths were inoculated with 2-3 isolated colonies from agar plates and incubated overnight (37° C. on an orbital shaker). Broths containing C. albicans strain 529L were washed 3 times with sterile phosphate buffered saline (PBS) before dilution to the correct inoculum for infection. Cell counts were determined using a haemocytometer and confirmed by quantitative culture on Sabouraud dextrose agar.
Rats were infected with 0.1 mL by intravaginal administration under inhaled isoflurane anaesthesia using about 9.8×10^5 CFU/mL (9.8×10^4 CFU/Rat) C. albicans strain 529L
Treatment. […] The fluconazole treatment also started at 24 h post infection but was administered by the PO route at the dose volume and frequency shown in Table 7. The study design is further outlined in FIG. 19.
Reduction in weight and general loss of condition due to estradiol treatment are also typical in this rat model. Colonization with C. albicans was determined by quantitative culture of daily vaginal lavage samples. Rats were euthanized 9 days post infection and C. albicans determined by quantitative culture of vaginal tissue (including uterine horns).
Lavage samples were obtained on Days 1 (pre-treatment), 2, 3, 5, 7, and 9 days post infection by flushing rat vaginas 4 times with 0.1 mL pre-warmed sterile PBS. Following euthanasia, vaginal tissue including uterine horns was removed prior to weighing. Tissues were homogenized in 2 mL sterile PBS using a bead-beater. Vaginal wash and tissue homogenates were diluted appropriately then quantitatively cultured on to Sabouraud dextrose agar containing 0.05 mg/mL chloramphenicol and incubated at 37° C. for up to 72 h before being counted.
Statistical analysis. Data were analyzed using StatsDirect software (version 2.7.8) using the non-parametric Kruskal-Wallis test and if this was statistically significant all pairwise comparisons were analyzed (Conover-Inman).

[3] = lavage Day 1 post treatment (Day 2 post infection), 5 mg/kg SC dosed once
[4] = lavage Day 1 post treatment (Day 2 post infection), 5 mg/kg SC dosed twice
[5] = lavage Day 1 post treatment (Day 2 post infection), 10 mg/kg SC dosed once
[6] = lavage Day 2 post treatment (Day 3 post infection), 5 mg/kg SC dosed once
[7] = lavage Day 2 post treatment (Day 3 post infection), 5 mg/kg SC dosed twice
[8] = lavage Day 2 post treatment (Day 3 post infection), 10 mg/kg SC dosed once
[9] = lavage Day 4 post treatment (Day 5 post infection), 5 mg/kg SC dosed once
[10] = lavage Day 4 post treatment (Day 5 post infection), 5 mg/kg SC dosed twice
[11] = lavage Day 4 post treatment (Day 5 post infection), 10 mg/kg SC dosed once
[12] = lavage Day 5 post infection, 10 mg/kg SC once
[13] = lavage Day 6 post treatment (Day 7 post infection), 5 mg/kg SC dosed once
[14] = lavage Day 6 post treatment (Day 7 post infection), 5 mg/kg SC dosed twice
[15] = lavage Day 6 post treatment (Day 7 post infection), 10 mg/kg SC dosed once
[16] = lavage Day 8 post treatment (Day 9 post infection), 5 mg/kg SC dosed once
[17] = lavage Day 8 post treatment (Day 9 post infection), 5 mg/kg SC dosed twice
[18] = lavage Day 8 post treatment (Day 9 post infection), 10 mg/kg SC dosed once
[19] = terminal vaginal tissue (vagina, uterus, uterine horns) Day +9 post infection, 5 mg/kg SC dosed once
[20] = terminal vaginal tissue Day +9 post infection, 5 mg/kg SC dosed twice
[21] = terminal vaginal tissue Day +9 post infection, 10 mg/kg SC dosed once
[22] = vaginal lavage Day 1 post infection, pre-treatment, 5 mg/kg SC dosed once group
[23] = vaginal lavage Day 1 post infection, pre-treatment, 5 mg/kg SC dosed twice group
[24] = vaginal lavage Day 1 post infection, pre-treatment, 10 mg/kg SC dosed once group

CCCCCOc1ccc(-c2ccc(-c3ccc(C(=O)N[C@H]4C[C@@H](O)[C@@H](OCC[N+](C)(C)C)NC(=O)C5C(O)[C@@H](C)CN5C(=O)[C@H]([C@@H](C)O)NC(=O)[C@H]([C@H](O)[C@@H](O)c5ccc(O)cc5)NC(=O)[C@@H]5C[C@@H](O)CN5C(=O)C(C(C)O)NC4=O)cc3)cc2)cc1 (stereo partly drawn) [CD101] ({pTerphenylCO(4''-OnC5H11)}-[Orn(4R-OH,5R-OCH2CH2NMe3+)][ξT][Hyp][hTyr(3S-OH,4S-OH)]T[X1]; lactam 1-C)
kidney CFU ([1]; 3 mg/kg SC Day −1, all but one animal): cleared the infection completely
kidney CFU ([1]; 3 mg/kg SC on Day −5 and Day −3 (two doses, inadvertent)): completely cleared the infection
kidney CFU ([1]; 10 or 30 mg/kg SC at all pre-challenge time points, 24 hr harvest): cleared the infection completely
reduction in terminal vaginal tissue burden ([2]; 5 mg/kg SC once, Day 9): about 0.4 Log10 CFU/g
reduction in terminal vaginal tissue burden ([2]; 5 mg/kg SC twice, Day 9): about 0.9 Log10 CFU/g
rats with tissue burdens below the levels of detection ([2]; 10 mg/kg SC once, Day 9): 5/6
CFU ([2]; 10 mg/kg SC once, all but one rat, Day 9): undetectable CFU
Group Geometric mean [2, 3]: 3.34 × 10^2 CFU/mL
Log Group Geometric mean [2, 3]: 2.52 CFU/mL
Log reduction from vehicle control [2, 3]: 1.17 CFU/mL
Group Geometric mean [2, 4]: 2.56 × 10^2 CFU/mL
Log Group Geometric mean [2, 4]: 2.41 CFU/mL
Log reduction from vehicle control [2, 4]: 1.29 CFU/mL
Group Geometric mean [2, 5]: 2.48 × 10^2 CFU/mL
Log Group Geometric mean [2, 5]: 2.39 CFU/mL
Log reduction from vehicle control [2, 5]: 1.30 CFU/mL
burden vs vehicle, statistics ([2]; lavage Day 2 post infection): neither the CD101 nor fluconazole burden was statistically different from the vehicle burden
reduction in burden ([2]; lavage Day 2 post infection, all doses of CD101): about 1.3 Log10 CFU/mL
Group Geometric mean [2, 6]: 1.21 × 10^2 CFU/mL
Log Group Geometric mean [2, 6]: 2.08 CFU/mL
Log reduction from vehicle control [2, 6]: 1.49 CFU/mL
Group Geometric mean [2, 7]: 1.95 × 10^2 CFU/mL
Log Group Geometric mean [2, 7]: 2.29 CFU/mL
Log reduction from vehicle control [2, 7]: 1.28 CFU/mL
Group Geometric mean [2, 8]: 23.2 CFU/mL
Log Group Geometric mean [2, 8]: 1.37 CFU/mL
Log reduction from vehicle control [2, 8]: 2.21 CFU/mL
burden vs vehicle, statistics ([2]; lavage Day 3 post infection, all treatments): statistically different from the vehicle treatments
Group Geometric mean [2, 9]: 1.70 × 10^3 CFU/mL
Log Group Geometric mean [2, 9]: 3.23 CFU/mL
Log reduction from vehicle control [2, 9]: 0.99 CFU/mL
Group Geometric mean [2, 10]: 1.73 × 10^3 CFU/mL
Log Group Geometric mean [2, 10]: 3.24 CFU/mL
Log reduction from vehicle control [2, 10]: 0.98 CFU/mL
Group Geometric mean [2, 11]: 1.73 CFU/mL
Log Group Geometric mean [2, 11]: 0.24 CFU/mL
Log reduction from vehicle control [2, 11]: 3.98 CFU/mL
burden reduced to ([2]; lavage Day 5 post infection, 5 mg/kg SC once or twice, not statistically different from vehicle): about 1 Log10 CFU/m
burden reduced to [2, 12]: about 4 Logo CFU/mL
rats having burden below the limit of detection [2, 12]: 5/6
Group Geometric mean [2, 13]: 4.56 × 10^3 CFU/mL
Log Group Geometric mean [2, 13]: 3.66 CFU/mL
Log reduction from vehicle control [2, 13]: 0.52 CFU/mL
Group Geometric mean [2, 14]: 6.47 × 10^2 CFU/mL
Log Group Geometric mean [2, 14]: 2.81 CFU/mL
Log reduction from vehicle control [2, 14]: 1.37 CFU/mL
Group Geometric mean [2, 15]: 2.59 CFU/mL
Log Group Geometric mean [2, 15]: 0.41 CFU/mL
Log reduction from vehicle control [2, 15]: 3.77 CFU/mL
Group Geometric mean [2, 16]: 4.58 × 10^3 CFU/mL
Log Group Geometric mean [2, 16]: 3.66 CFU/mL
Log reduction from vehicle control [2, 16]: 0.64 CFU/mL
Group Geometric mean [2, 17]: 1.28 × 10^3 CFU/mL
Log Group Geometric mean [2, 17]: 3.11 CFU/mL
Log reduction from vehicle control [2, 17]: 1.19 CFU/mL
Group Geometric mean [2, 18]: 2.75 CFU/mL
Log Group Geometric mean [2, 18]: 0.44 CFU/mL
Log reduction from vehicle control [2, 18]: 3.86 CFU/mL
Group Geometric mean [2, 19]: 1.37 × 10^5 CFU/g
Log Group Geometric mean [2, 19]: 5.14 CFU/g
Log reduction from vehicle control [2, 19]: 0.36 CFU/g
Group Geometric mean [2, 20]: 4.00 × 10^4 CFU/g
Log Group Geometric mean [2, 20]: 4.60 CFU/g
Log reduction from vehicle control [2, 20]: 0.89 CFU/g
Group Geometric mean [2, 21]: 5.52 CFU/g
Log Group Geometric mean [2, 21]: 0.74 CFU/g
Log reduction from vehicle control [2, 21]: 4.75 CFU/g
Group Geometric mean [2, 22]: 9.11 × 10^2 CFU/mL
Log Group Geometric mean [2, 22]: 2.96 CFU/mL
Log reduction from vehicle control [2, 22]: −0.52 CFU/mL
Group Geometric mean [2, 23]: 1.83 × 10^3 CFU/mL
Log Group Geometric mean [2, 23]: 3.26 CFU/mL
Log reduction from vehicle control [2, 23]: −0.83 CFU/mL
Group Geometric mean [2, 24]: 3.68 × 10^2 CFU/mL
Log Group Geometric mean [2, 24]: 2.57 CFU/mL
Log reduction from vehicle control [2, 24]: −0.13 CFU/mL
